Patent publication US9629822B2, “Flavonoid based antiviral targets” (UNIVERSITY OF CENTRAL FLORIDA RESEARCH FOUNDATION, INC., priority 2012, dated 2017)
Where two headings read alike, the source gives them in different places.

What was measured:
US28 receptor = target: T1, US28 receptor (Human cytomegalovirus, UniProt P69332); assay: PathDetect trans Elk1 luciferase reporter gene assay in US28-transfected 293T HEK cells; assay type: cell-based, Human Cytomegalovirus (HCMV); details: for type of activity on the US28 receptor (agonist / inverse agonist / none), in words: Elk1 reporter, US28-transfected HEK cells
T1 construct: expressed in transfected cells; host or cells: HEK 293T cells, transiently transfected
T1 sequence (P69332 whole entry): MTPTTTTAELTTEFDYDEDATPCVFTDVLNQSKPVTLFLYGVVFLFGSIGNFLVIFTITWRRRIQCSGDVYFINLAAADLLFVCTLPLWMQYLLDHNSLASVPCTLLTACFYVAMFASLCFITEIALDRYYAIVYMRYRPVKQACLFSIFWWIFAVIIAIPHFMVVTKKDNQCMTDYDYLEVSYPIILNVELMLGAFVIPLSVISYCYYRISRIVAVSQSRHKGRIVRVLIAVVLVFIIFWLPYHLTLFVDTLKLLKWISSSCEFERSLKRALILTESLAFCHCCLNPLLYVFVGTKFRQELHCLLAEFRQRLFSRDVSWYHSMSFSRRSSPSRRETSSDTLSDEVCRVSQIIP
Method in brief: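 HEK293T cells transiently transfected with Elk1, Luc and US28 vector (empty pcDNA3 for mock) were dosed with compounds in DMEM/1% FBS with 1% DMSO for 20-24 h at 37° C. Bright-Glo luminescence decrease was read; EC50 is halfway between maximal response and no-compound control, by non-linear regression.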

[1] = system: mock transfected 293T HEK cells; assay: PathDetect Elk1 luminescence in mock transfected (empty pcDNA3 vector) 293T HEK cells, off-target effect; assay type: cell-based, human; details: for activation at 10 µM: Homo sapiens, read-out: Effect(%) on mock cells with each drug at 10 μM
Method in brief: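 HEK 293T cells were transiently transfected with PathDetect Elk1/luciferase and empty pcDNA3, then exposed to 10 μM compound in medium with 1% FBS and 1% DMSO for 20-24 h at 37 °C. BrightGlo luminescence was compared with the 1% DMSO control: % effect = 100%×(mock/DMSO) − 100%.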

CHO cells = assay: CHO cell toxicity, MTS assay, 48 h; assay type: cell-based, Chinese hamster; details: Cricetulus griseus, CHO
Method in brief: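 CHO cells plated at 10,000 cells/mL, incubated overnight, then exposed to drug (final DMSO <1%) for 48 h at 37 °C, 5% CO2, in triplicate. MTS added for a further 4 h; absorbance read at 490 nm. IC50 taken from relative A490 versus drug concentration.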

[2] = 293T HEK cells transiently expressing US28, Elk1 reporter, NE = no effect when tested at 10 μM of compound
[3] = 10 μM vs 1% DMSO control, Equation 1
[4] = 37° C., MTS reagent, read-out: CHO 48 h IC50 value
[5] = EC50 (μM), 293T HEK cells transiently expressing US28, Elk1 reporter, NE = no effect when tested at 10 μM of compound

| SMILES | EC50 (μM) (US28 receptor; [2]) | toxicity at 10 μM in HEK cells, in words ([1]; 10 μM) | Effect(%) on mock cells with each drug at 10 μM [1, 3] | IC50 (CHO cells; [4]) [µM] | EC50 (US28 receptor; pEC50 ± SEM, 293T HEK cells transiently expressing US28, Elk1 reporter) [µM] | activation at 10 µM [1, 3] [%] | EC50 (US28 receptor; [5]) [µM] | type of activity on the US28 receptor (agonist / inverse agonist / none), in words (US28 receptor) | Efficacy(%) (US28 receptor; maximum intrinsic activity from dose-response curve, negative = inverse agonism) | Emax (US28 receptor; read-out: Efficacy(%), maximum intrinsic activity from dose-response curve, negative = inverse agonism) [%] | EC50 (US28 receptor; [2]) [µM] | activation at 10 µM [1] [%] | IC50 (CHO cells; read-out: CHO 48 h IC50 value (μM)) [µM] |
| --- | --- | --- | --- | --- | --- | --- | --- | --- | --- | --- | --- | --- | --- |
| COc1ccc(Br)cc1/C=C/C(=O)c1c(O)cccc1OCc1ccccc1 [Compound 8l, (E)-1-(2-(Benzyloxy)-6-hydroxyphenyl)-3-(5-bromo-2-methoxyphenyl)prop-2-en-1-one] | Toxic | very toxic | Toxic | 8.1 ± 1 | – | – | – | – | – | – | – | – | – |
| COc1ccc(Br)cc1/C=C/C(=O)c1ccc2ccccc2c1O [Compound 8m, (E)-3-(5-bromo-2-methoxyphenyl)-1-(1-hydroxynaphthalen-2-yl)prop-2-en-1-one] | – | – | 35% | 15.6 ± 1 | 2.88 | 35 | – | – | – | – | – | – | – |
| COc1ccccc1-c1oc2ccccc2c(=O)c1O [Compound 9a, 3-Hydroxy-2-(2-methoxyphenyl)-4H-chromen-4-one] | – | – | – | > 100 | – | -1 | 4.6 | inhibited US28 receptor constitutive activity | −19 | -19 | – | – | – |
| COc1ccc(Br)cc1-c1oc2ccccc2c(=O)c1O [Compound 9b, 2-(5-Bromo-2-methoxyphenyl)-3-hydroxy-4H-chromen-4-one] | – | – | – | 88.5 ± 10.1 | – | -11 | > 10 | did not show any activity | – | – | > 10 | – | – |
| COc1ccc(Cl)cc1-c1oc2ccccc2c(=O)c1O [Compound 9h, 2-(5-chloro-2-methoxyphenyl)-3-hydroxy-4H-chromen-4-one] | – | – | 2% | 25 ± 2.2 | – | 2 | 1.32 | inverse agonist | – | – | – | – | – |
| COc1ccccc1-c1cc(=O)c2c(O)cccc2o1 [Compound 12a, 5-Hydroxy-2-(2-methoxyphenyl)-4H-chromen-4-one] | – | – | – | – | – | – | > 10 | – | – | – | > 10 | 2 | > 100 |
| COc1ccc(Br)cc1-c1cc(=O)c2c(O)cccc2o1 [Compound 12b, 2-(5-Bromo-2-methoxyphenyl)-5-hydroxy-4H-chromen-4-one] | – | – | – | 75.2 ± 8.7 | – | -16 | > 10 | – | – | – | > 10 | – | – |
